Some test systems named below: MCF7; OVCAR-8; CCRF-CEM; HT-29; SK-MEL-5; HL-60; RPMI-8226; UACC-62; NCI-H522; SF-268; KM12; MDA-MB-231; 786-0; MDA-MB-435; HCT-116; T47D; SK-MEL-28; PC-3; SK-MEL-2; MDA-N.
Holding throughout (test): growth of human tumour cells (NCI), 48 h

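Following 48 hours of exposure in 96-well plates, responses at five concentrations were used to interpolate endpoints linearly. Here, GI50 denotes the concentration required for 50% inhibition of growth.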 The source made the active and inactive calls. No stated cut-off is given here; in the data, active = GI50 up to about 1.1 µM and inactive = higher. A value given as a limit tells only on which side of the number the result lay.

`COc1ccc(CNc2nc3ccccc3nc2-c2cccs2)cc1`: the GI50 with MCF7 was 28.3 µM (inactive); with OVCAR-8 it was 28.9 µM (inactive); with CCRF-CEM, 25.9 µM (inactive); in the assay with HT-29, 18.9 µM (inactive); in the assay on SK-MEL-5, 23.8 µM (inactive); with HL-60, 61.7 µM (inactive). The GI50 in the assay on RPMI-8226 is 21.5 µM (inactive); in the assay on UACC-62, 38.4 µM (inactive); with NCI-H522, 23.5 µM (inactive); in the assay with SF-268, > 100 µM (inactive); in the assay with KM12, 28.9 µM (inactive); with MDA-MB-231, 23.6 µM (inactive). The GI50 in the assay on 786-0 is 43.9 µM (inactive); in the assay on MDA-MB-435, 27.4 µM (inactive); with HCT-116, 26.7 µM (inactive); in the assay on T47D, 22.9 µM (inactive); in the assay with SK-MEL-28, > 100 µM (inactive).

On to `CC1=NN(c2nc(N)nc(CN3CCOCC3)n2)C(C)(C)C1`, for which the GI50 in the assay on MCF7 is > 100 µM (inactive); in the assay with OVCAR-8 it was > 100 µM (inactive); with CCRF-CEM, 30.1 µM (inactive); in the assay with HT-29 it was > 100 µM (inactive); with SK-MEL-5 it was 73.3 µM (inactive); in the assay on HL-60, 15.2 µM (inactive). For the same compound, the GI50 in the assay with RPMI-8226 was > 100 µM (inactive); in the assay with UACC-62, 26.5 µM (inactive); in the assay on PC-3 it was > 100 µM (inactive); in the assay with NCI-H522, 14 µM (inactive); in the assay with SF-268 it was > 100 µM (inactive); with SK-MEL-2 it was > 100 µM (inactive). Moreover, the GI50 is > 100 µM (inactive) in the assay with KM12; > 100 µM (inactive) in the assay with MDA-MB-231; 15.2 µM (inactive) in the assay with 786-0; > 100 µM (inactive) with MDA-MB-435; > 100 µM (inactive) with HCT-116; > 100 µM (inactive) in the assay on T47D. Further, the GI50 in the assay on SK-MEL-28 is > 100 µM (inactive).

As for `COC(=O)C(NC(=O)CNC(=O)CSc1nnc(COc2ccc(Cl)cc2)n1-c1ccccc1)C(C)C` (configuration not stated), the GI50 in the assay on MCF7 was 16.1 µM (inactive); with OVCAR-8 it was 20.1 µM (inactive); in the assay with CCRF-CEM, 21.7 µM (inactive); with HT-29 it was 17.7 µM (inactive); in the assay on SK-MEL-5, 16.2 µM (inactive); in the assay on RPMI-8226 it was 20.4 µM (inactive). The GI50 in the assay on UACC-62 was 16.6 µM (inactive); in the assay on PC-3 it was 17.9 µM (inactive); with NCI-H522, 3.75 µM (inactive); in the assay on SF-268 it was 21.3 µM (inactive); with SK-MEL-2, 20.8 µM (inactive); in the assay with KM12, 18.5 µM (inactive). In addition, the GI50 was 18.5 µM (inactive) in the assay on MDA-MB-231; 18.4 µM (inactive) with 786-0; 21.6 µM (inactive) in the assay with MDA-N; 21.2 µM (inactive) with MDA-MB-435; 16.2 µM (inactive) with HCT-116; 16.7 µM (inactive) in the assay on SK-MEL-28.

For `O=C(OC1=CCN(Br)C1=O)C1=C(O)C(=O)N(Br)C1`, the GI50 was 33 µM (inactive) in the assay on MCF7; 31.3 µM (inactive) in the assay with OVCAR-8; 27.1 µM (inactive) in the assay on CCRF-CEM; 17.2 µM (inactive) in the assay on SK-MEL-5; 24.5 µM (inactive) in the assay with HL-60; 24.4 µM (inactive) in the assay with RPMI-8226. For the same compound, the GI50 is 18.1 µM (inactive) with UACC-62; 29.3 µM (inactive) in the assay on PC-3; 14.3 µM (inactive) with NCI-H522; 24.9 µM (inactive) in the assay on SF-268; 26.4 µM (inactive) in the assay with SK-MEL-2; 32.2 µM (inactive) in the assay with KM12. The GI50 is 29.2 µM (inactive) with MDA-MB-231; 16.7 µM (inactive) in the assay with 786-0; 33.1 µM (inactive) in the assay with MDA-MB-435; 17.8 µM (inactive) with HCT-116; 18.4 µM (inactive) with T47D; 18.8 µM (inactive) in the assay with SK-MEL-28.

As to `Cc1[nH]n(C(=N)N)c(=O)c1CCO`, the GI50 in the assay on MCF7 was > 100 µM (inactive); in the assay with OVCAR-8, 1.68 µM (inactive); with CCRF-CEM it was > 100 µM (inactive); in the assay on HT-29 it was > 100 µM (inactive); in the assay on SK-MEL-5 it was > 100 µM (inactive); with HL-60, > 100 µM (inactive). Moreover, the GI50 in the assay on UACC-62, in the assay with PC-3, in the assay with NCI-H522, in the assay with SF-268, with SK-MEL-2 and in the assay with MDA-MB-231 was > 100 µM (inactive) in each case. Moreover, the GI50 is 1.67 µM (inactive) in the assay on 786-0; > 100 µM (inactive) in the assay with MDA-N; > 100 µM (inactive) with MDA-MB-435; > 100 µM (inactive) in the assay with HCT-116; > 100 µM (inactive) in the assay on SK-MEL-28.

Consider `Cc1ccc(/C=c2\cc3oc(=O)c4cccc(c4-3)c2=O)cc1`, for which the GI50 is > 100 µM (inactive) with MCF7; 97.7 µM (inactive) in the assay on OVCAR-8; 19.6 µM (inactive) in the assay with CCRF-CEM; > 100 µM (inactive) in the assay on HT-29; 39.1 µM (inactive) in the assay on HL-60; 31.2 µM (inactive) in the assay with RPMI-8226. The GI50 with UACC-62 was > 100 µM (inactive); in the assay with PC-3 it was > 100 µM (inactive); in the assay on NCI-H522 it was 38.1 µM (inactive); with SF-268, 59.3 µM (inactive); in the assay on SK-MEL-2 it was > 100 µM (inactive); in the assay on MDA-MB-231, > 100 µM (inactive). Further, the GI50 with 786-0, in the assay on MDA-MB-435, in the assay on HCT-116, in the assay on T47D and with SK-MEL-28 was > 100 µM (inactive) throughout.

With `COC(=O)c1ccc(/C=C(\c2ccc([N+](=O)[O-])o2)S(=O)(=O)c2ccc(NC(C)=O)cc2)o1`, the GI50 in the assay on MCF7 is 5.36 µM (inactive); in the assay on OVCAR-8, 3.42 µM (inactive); with HT-29, 2.59 µM (inactive); with SK-MEL-5, 3.93 µM (inactive); with HL-60, 3.03 µM (inactive); with RPMI-8226, 1.22 µM (inactive). Besides, the GI50 with UACC-62 was 2 µM (inactive); with PC-3, 14.8 µM (inactive); with NCI-H522, 2.03 µM (inactive); with SF-268 it was 13.6 µM (inactive); in the assay on SK-MEL-2, 15.9 µM (inactive); with KM12, 13.4 µM (inactive). Further, the GI50 in the assay with MDA-MB-231 was 2.01 µM (inactive); in the assay with 786-0, 3.43 µM (inactive); with MDA-MB-435, 3.82 µM (inactive); in the assay on HCT-116, 2.46 µM (inactive); with T47D, 18.4 µM (inactive); in the assay with SK-MEL-28 it was 4.69 µM (inactive).

Consider `CC(=O)NC1(C)CCC(C(C)(C)NC(C)=O)CC1` (configuration not stated), for which the GI50 in the assay with MCF7, with OVCAR-8, with CCRF-CEM, in the assay on HT-29, in the assay with SK-MEL-5 and in the assay with HL-60 was > 100 µM (inactive) each time. The GI50 with RPMI-8226, in the assay on UACC-62, in the assay on PC-3, with SF-268, in the assay with KM12 and with MDA-MB-231 was > 100 µM (inactive) throughout. The GI50 with 786-0, in the assay with MDA-N, in the assay with MDA-MB-435, in the assay on HCT-116 and in the assay with SK-MEL-28 was > 100 µM (inactive) each time.

For `COc1cc2cc(c1Cl)N(C)C(=O)C[C@H](OC(=O)[C@H](C)N(C)C(C)=O)[C@]1(C)O[C@H]1[C@H](C)[C@@H]1C[C@@](O)(NC(=O)O1)[C@H](OC)/C=C/C=C(/C)C2`, the GI50 with MCF7 was 0.018 µM (active); in the assay on OVCAR-8, 0.0218 µM (active); in the assay on CCRF-CEM, 0.0159 µM (active); with HT-29, 0.0164 µM (active); in the assay with SK-MEL-5, 0.0135 µM (active); in the assay with HL-60, 0.0125 µM (active). Moreover, the GI50 in the assay on RPMI-8226 was 0.0133 µM (active); with UACC-62, 0.0337 µM (active); in the assay with PC-3, 0.000505 µM (active); in the assay with NCI-H522, 0.0173 µM (active); with SF-268, 0.0176 µM (active); in the assay on SK-MEL-2, 0.0491 µM (active). Besides, the GI50 in the assay on KM12 was 0.0149 µM (active); in the assay with 786-0, 0.025 µM (active); in the assay with MDA-N, 0.0131 µM (active); in the assay with HCT-116, 0.0143 µM (active); in the assay on T47D it was > 100 µM (inactive); in the assay on SK-MEL-28 it was 0.0327 µM (active).

In the case of `CCCCCCCCCCCC(=O)OCCOCCOCCOCCOCCOC(=O)CCCCCCCCCCC`, the GI50 is > 100 µM (inactive) in the assay on OVCAR-8; > 100 µM (inactive) in the assay on CCRF-CEM; > 100 µM (inactive) in the assay on HT-29; > 100 µM (inactive) with SK-MEL-5; 37.6 µM (inactive) in the assay on HL-60; > 100 µM (inactive) in the assay with RPMI-8226. In addition, the GI50 in the assay on UACC-62 was 56.2 µM (inactive); with NCI-H522 it was > 100 µM (inactive); in the assay with SF-268, > 100 µM (inactive); in the assay on SK-MEL-2, > 100 µM (inactive); in the assay on KM12, > 100 µM (inactive); with 786-0, > 100 µM (inactive). Moreover, the GI50 with HCT-116 and in the assay with SK-MEL-28 was > 100 µM (inactive) each time.

`CNS(=O)(=O)NNS(=O)(=O)c1ccc(Cl)cc1`: the GI50 in the assay with OVCAR-8, with CCRF-CEM, with HT-29, in the assay with SK-MEL-5, with HL-60 and in the assay on RPMI-8226 was > 100 µM (inactive) each time. The GI50 in the assay with UACC-62, in the assay on NCI-H522, in the assay with SF-268, with SK-MEL-2, in the assay with KM12 and with 786-0 was > 100 µM (inactive) throughout. The GI50 in the assay on HCT-116 and with SK-MEL-28 was > 100 µM (inactive) each time.

Take `C=CC(=O)NC(=N)NC#N`: the GI50 was > 68.7 µM (inactive) in the assay on MCF7; 214 µM (inactive) in the assay with OVCAR-8; 22.6 µM (inactive) in the assay on CCRF-CEM; 189 µM (inactive) in the assay with HT-29; 165 µM (inactive) with SK-MEL-5; 26.9 µM (inactive) in the assay with HL-60. The GI50 in the assay on RPMI-8226 was 22 µM (inactive); with UACC-62, 157 µM (inactive); with NCI-H522, 18 µM (inactive); in the assay with SF-268 it was 121 µM (inactive); in the assay with SK-MEL-2, > 100 µM (inactive); with KM12, > 100 µM (inactive). In addition, the GI50 was 163 µM (inactive) in the assay on 786-0, 189 µM (inactive) with HCT-116 and 131 µM (inactive) in the assay on SK-MEL-28.

The values above are taken from ChEMBL document CHEMBL1201862, “PubChem BioAssay data set” (2004).
